Assay results as given in patent publication US6121241A, “Anticoagulant peptide aldehyde derivatives” (Gyogyszerkutato Intezet Kft., priority 1996, dated 2000).
Where a name gives a salt, the structure may show the parent alone. Read-outs that look alike come from different tables or passages of the source. Square brackets hold non-standard residues; d marks the D form. Peptide text beside a SMILES is read from it. * marks the point of attachment. 1Nal = N[C@@H](Cc1cccc2ccccc12)C(=O)O; Boc = CC(C)(C)OC(=O)*

Legend:
[1] = tested on: citrate plasma coagulation (PT); assay: Prothrombin time (PT) plasma clotting test; assay type: biochemical; settings: concentration doubling clotting time
Method: (§1) Anticoagutant activity (i.e. inhibition of the proteolytic reactions in the process) is measured by anticoagulant tests, e.g. by the thrombin time (TT), activated partial thromboplastin time (APTT) and prothrombin time (PT) tests [E. J. W. Bovie et al; Mayo Clinic Laboratory Manual of Hemostasis; W. B. Sanuders Co., Philadelphia (1971)]. Plasma, inhibited in spontaneous coagulation, e.g. citrate-plasma, is made to coagulate and the required coagulation time is measured. Upon the action of anticoagulants the coagulation time is prolonged proportionally to the inhibition of the reaction(s) in the process. The anticoagulant effect can be characterized by the substance concentration required to double the coagulation time compared to the control (IC50). The effect of anticoagulants on individual coagulant proteases is measured by the amidolytic method [R. Lottenberg et al., Methods in Enzymol. 80, 341 (1981); G. Cleason, Blood Coagulation and Fibrinolysis 5, 411 (1994)]. The isolated active factor (e.g. thrombin, fXa) and its chromogen or fluorogen peptide-amide substrate are reacted in the presence or absence of the inhibitor, resp. The enzyme inhibiting action is characterized by the inhibitory constant (IC50) measured during amidolysis.
(§2) In the TT test coagulation is initiated by the thrombin added to the citrate plasma. In the system 22 pmol/mL of thrombin is functioning and in the presence of plasma components its inhibition can be measured on the fibrinogen (one of the natural substrates of thrombin) present In the APTT and PT tests the full coagulation process is made to proceed. Depending on the activator fX is activated by the extrinsic or intrinsic pathway. The generated fXa activates prothrombin to thrombin which, in turn, triggers plasma coagulation. In the test the coagulation time is prolonged if the enzymes or one of them is inhibited by the inhibitor. In the APTT and PT tests at most 40 pmole/ml Xa is generated (this is the full amount of factor X present in both systems) while 150 pmole/ml (APTT) and 350 pmole/ml (PT) are generated from thrombin [B Kaiser et al., Thromb. Res. 65, 157 (1992)].
(§3) The in vitro anticoagulant effect of the compounds of general formula (I) was measured by the prothrombin time (PT), activated partial thromboplastin time (APTT) and thrombin time (TT) tests [D. Bagdy et at., Thromb. Haemost. 67, 325 (1992)]. The Xa-factor-inhibiting effect of the compounds was also determined by using the Bz-Ile-Glu-Gly-Arg-pNA chromogen substrate (see method M6).

[2] = molecular target: T1, human factor Xa (Homo sapiens, UniProt P00742); assay: Inhibition of the amidolytic effect of factor Xa in solution on Bz-Ile-Glu-Gly-Arg-pNA (method M6); assay type: biochemical
T1 construct: purchased SIGMA
T1 sequence (P00742 235-488 limits assumed): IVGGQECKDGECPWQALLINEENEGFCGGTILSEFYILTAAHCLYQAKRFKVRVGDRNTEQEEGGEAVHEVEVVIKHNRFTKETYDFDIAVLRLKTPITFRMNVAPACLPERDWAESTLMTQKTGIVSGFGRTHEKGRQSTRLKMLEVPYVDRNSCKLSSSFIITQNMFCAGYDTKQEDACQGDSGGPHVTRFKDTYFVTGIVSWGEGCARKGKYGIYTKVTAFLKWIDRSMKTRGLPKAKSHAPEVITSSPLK
T1 sequence (P00742 41-179 partner limits assumed): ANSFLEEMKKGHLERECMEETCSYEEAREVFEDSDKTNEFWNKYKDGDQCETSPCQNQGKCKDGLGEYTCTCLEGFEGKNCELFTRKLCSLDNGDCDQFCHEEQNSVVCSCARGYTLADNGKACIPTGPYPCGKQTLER
Method: as §1, §3
Assay of the Inhibition of Factor Xa in Solution on a 96-well Microtiter Plate
a) 1.3 U/mL factor Xa (human, SIGMA), 0.1-1.0-10 and 100 μg/mL solutions in phosphate buffer (0.1 M sodium phosphate and 0.05 M sodium chloride, pH 7.4) of the peptide inhibitors and […] solutions of the substrate Bz-Ile-Glu-Gly-Arg-pNA in distilled water are used.
b) Three reaction mixtures are prepared from the control and each peptide solution. 30 μL each of the peptide and the buffer, serving as control, 30 μL factor Xa, 90 μL butter and 150 μL substrate are placed in the wells of the plate, then after 10 minutes the extinction values are read at 405 nm The procedure is continued as described in Method M2, point c).

[3] = molecular target: T2, thrombin (Homo sapiens, UniProt P00734); assay: Thrombin time (TT) plasma clotting test; assay type: biochemical; settings: concentration doubling clotting time
T2 construct: The isolated active factor (e.g. thrombin, fXa) and its chromogen or fluorogen peptide-amide substrate are reacted
Method: as §1, §2, §3

[4] = tested on: citrate plasma coagulation (APTT); assay: Activated partial thromboplastin time (APTT) plasma clotting test; assay type: biochemical; settings: concentration doubling clotting time
Method: as §1, §2, §3

[5] = molecular target: fXa (Homo sapiens, UniProt P00742); settings: Z-D-Arg-Gly-Arg-pNA substrate; according to the literature; read-out: IC50, amidolytic activity of fXa; cited from earlier work
Sequence of fXa (P00742 235-488 limits assumed): as the sequence (P00742 235-488 limits assumed) above
Sequence of fXa (P00742 41-179 partner limits assumed): as the sequence (P00742 41-179 partner limits assumed) above

[6] = molecular target: urokinase (UK) (Homo sapiens, UniProt P00749); assay: Fibrin-plate method, plasmin formation induced by urokinase; assay type: biochemical; settings: for IC50: fibrin-plate method, hydrolyzed area reduced by 50%
Excerpt: (§4) The inhibitory effect of the new compounds of the invention on plasmin (PL) as well as on plasmin formation induced by tissue plasminagen activator (tPA) and urokinase (UK) was studied by the […] [D. Bagdy et al.; Thromb. Haemost. 67, 325 (1992)]. Compounds C1 and C3 served as controls. […] V. Jackson et al., J. Cardiovasc. Pharmacol. 21, 587 (1993)].
(§5) ^a IC50 = peptide concentration (mM) where the hydrolyzed area o
(§6) the fibrin plate is reduced by 50% compared to the control

[7] = molecular target: plasmin (PL) (Homo sapiens, UniProt P00747); assay: Fibrin-plate method, plasmin; assay type: biochemical; settings: for IC50: fibrin-plate method, hydrolyzed area reduced by 50%
Sequence of plasmin (PL) (P00747 581-810 limits assumed, species assumed): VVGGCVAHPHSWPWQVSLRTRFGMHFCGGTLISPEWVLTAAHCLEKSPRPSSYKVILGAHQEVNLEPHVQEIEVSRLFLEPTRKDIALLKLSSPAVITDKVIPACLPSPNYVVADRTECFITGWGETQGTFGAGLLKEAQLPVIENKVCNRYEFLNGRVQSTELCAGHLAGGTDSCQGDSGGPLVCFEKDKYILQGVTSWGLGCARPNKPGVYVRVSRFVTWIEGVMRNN
Sequence of plasmin (PL) (P00747 97-580 partner limits assumed, species assumed): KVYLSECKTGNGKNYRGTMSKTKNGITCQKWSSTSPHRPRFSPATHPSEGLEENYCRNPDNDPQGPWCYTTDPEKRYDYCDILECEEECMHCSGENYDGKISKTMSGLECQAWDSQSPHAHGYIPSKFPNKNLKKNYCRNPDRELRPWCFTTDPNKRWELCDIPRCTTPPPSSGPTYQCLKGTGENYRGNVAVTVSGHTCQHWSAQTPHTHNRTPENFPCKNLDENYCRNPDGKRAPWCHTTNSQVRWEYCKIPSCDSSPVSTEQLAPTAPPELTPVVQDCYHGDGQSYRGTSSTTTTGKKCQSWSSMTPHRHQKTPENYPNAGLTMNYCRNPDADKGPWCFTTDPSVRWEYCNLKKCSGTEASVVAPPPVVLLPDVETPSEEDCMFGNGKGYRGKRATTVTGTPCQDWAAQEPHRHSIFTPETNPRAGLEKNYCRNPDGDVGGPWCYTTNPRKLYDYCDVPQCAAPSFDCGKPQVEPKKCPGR
Excerpt: as §4, §5, §6

[8] = molecular target: tissue plasminogen activator (tPA) (Homo sapiens, UniProt P00750); assay: Fibrin-plate method, plasmin formation induced by tPA; assay type: biochemical; settings: for IC50: fibrin-plate method, hydrolyzed area reduced by 50%
Sequence of tissue plasminogen activator (tPA) (P00750 36-562, species assumed): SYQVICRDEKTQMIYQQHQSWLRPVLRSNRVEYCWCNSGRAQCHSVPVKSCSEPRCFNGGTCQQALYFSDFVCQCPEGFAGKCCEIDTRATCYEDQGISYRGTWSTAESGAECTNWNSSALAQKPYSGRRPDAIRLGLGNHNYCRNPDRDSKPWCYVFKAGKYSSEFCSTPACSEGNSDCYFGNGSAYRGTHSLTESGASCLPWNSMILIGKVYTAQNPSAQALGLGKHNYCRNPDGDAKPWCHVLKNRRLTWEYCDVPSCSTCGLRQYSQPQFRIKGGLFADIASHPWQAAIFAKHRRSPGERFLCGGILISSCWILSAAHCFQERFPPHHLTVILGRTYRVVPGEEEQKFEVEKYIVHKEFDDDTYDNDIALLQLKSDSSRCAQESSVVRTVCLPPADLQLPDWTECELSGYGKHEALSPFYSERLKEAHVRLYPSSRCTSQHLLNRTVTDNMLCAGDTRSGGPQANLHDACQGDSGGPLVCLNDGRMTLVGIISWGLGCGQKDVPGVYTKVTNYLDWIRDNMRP
Excerpt: as §4, §5, §6

[9] = tested on: citrate plasma coagulation (APTT); settings: Table 1; published value; read-out: B: IC50, APTT; cited from earlier work
[10] = molecular target: T2, thrombin; settings: specific fXa inhibitors, literature; cited from earlier work
[11] = tested on: citrate plasma coagulation (PT); settings: Table 1; published value; read-out: B: IC50, PT; cited from earlier work
[12] = molecular target: T3, plasma clot entrapped thrombin (Homo sapiens, UniProt P00734); assay: Inhibition of thrombin entrapped in plasma clot (methods M1, M3); assay type: biochemical; settings: platelet-rich human plasma clot; Tos-Gly-Pro-Arg-pNA substrate
T3 construct: Here prothrombin is converted to thrombin; from tissue; host or cells: clot of recalcified platelet-rich human citrate plasma
Method: (§7) The plasma clot was obtained by the recalcification of platelet-rich human citrate plasma and fibrin gel by the coagulation of human fibrinogen with human thrombin Z-D-Arg-Gly-Arg-pNA and Tos Gly-Pro-Arg-pNA were used as substrates for measuring the activity of factor Xa and thrombin (methods M1-M5).
Preparation of Plasma Clot
a) Platelet-rich plasma (PRP) is prepared by centrifuging a 9:1 mixture of human blood and 3.8% aqueous sodium citrate solution (1/2) for 5 minutes at 240×g.
b) 200 μL of PRP are placed in each reaction vessel, 80 μL of 40 mM calcium chloride solution is added and the mixture is left to stand at room temperature for one hour. The plasma clot formed is rinsed mildly with 6×2 ml of 0.9% sodium chloride solution followed by 5 minute sedimentation to remove the dissolved enzymes (factor Xa and thrombin). The thrombin content of the washings is assayed as follows.
c) To 400 μL of washing liquid 100 μL of 1 mM Tos-Gly-Pro-Arg-pNA substrate solution is added and the mixture is incubated for 30 minutes at 37° C., then the reaction is stopped by the addition of 100 μL of 50% acetic acid. 150 μL portions of this mixture are transferred into the wells of the 96-well microtiter plate and the extinction is measured at 405 nm (ELISA READER SLT Laborinstrument GmbH, Austria). When the washing is successful, the extinction is less than 5% of the control
Assay of the Inhibition of Thrombin Entrapped in Plasma Clot
a) Peptide inhibitor solutions are prepared by the process described in Method M2, point a).
b) After draining the washing liquid, 400 μL of the peptide solution (3 parallel samples for each concentration) and 400 μL of buffer, serving as control, are placed on the clot (Method M1) and the mixture is incubated for 5 minutes at 37° C. Thereafter 100 μL of […] Tos-Gly-Pro-Arg-pNA substrate solution is added and incubation at 37° C. is continued for further 30 minutes, then the reaction is stopped by the addition of 100 μL of 50% acetic acid. The operation is continued as described in Method M2, point c).

[13] = molecular target: T4, fibrin-gel bound thrombin (Homo sapiens, UniProt P00734); assay: Inhibition of thrombin bound to fibrin-gel (methods M4, M5); assay type: biochemical; settings: Tos-Gly-Pro-Arg-pNA substrate
T4 construct: Here prothrombin is converted to thrombin; purchased SIGMA
Method: as §7
Preparation of Fibrin-Gel
a) 200 μL of 6 mg/mL human fibrinogen (SIGMA), 25 μL of 25 NIH U/mL human thrombin (SIGMA) and 40 μL of 100 mM calcium chloride solution are placed in each reaction vessel and the mixtures are stored for one hour at 20-22° C. The fibrin formed is rinsed mildly with 3×2 ml of isotonic saline solution followed by sedimentation to remove the thrombin content of the solution. The efficacy of rinsing is controlled by the process described in Method M1, point c).
Assay of the Inhibition of Thrombin Bound to Fibrin-Gel
a) 0.1-1.0-10 and 100 μg/ml solutions are prepared with Hepes/NaCl buffer (0.01 M Hepes and 0.1 M sodium chloride, pH=7.4).
b) Thereafter the procedure described in Method M3, point b) is followed.

[14] = Table 1, Bz-Ile-Glu-Gly-Arg-pNA chromogen substrate, read-out: A: IC50 (fXa inhibiting effect)
[15] = Table 1, read-out: B: IC50, APTT
[16] = related to the activity of C1 (1/IC50 = 1)
[17] = Table 2, Bz-Ile-Glu-Gly-Arg-pNA, isolated human factor Xa, read-out: B: IC50 (factor Xa inhibiting effect)
[18] = Table 2, read-out: A: IC50, APTT

4-MeP-Asp-Pro-Arg-H [Compound C3] gave an IC50 ([1]; Table 1, read-out: B: IC50, PT) of 19.3 µM, an IC50 [2, 14] of 0.064 µM and an IC50 ([3]; Table 1, read-out: B: IC50, TT) of 0.87 µM. For the same compound, the IC50 [4, 15] was 4.59 µM and the IC50 [5] was 0.057 µM.
In the case of `CC(C)(C)OC(=O)N[C@H](Cc1ccccc1)C(=O)N1CCC[C@H]1C(=O)N[C@H](C=O)CCCNC(=N)N` [Boc-D-Phe-Pro-Arg-H], the IC50 [6] is reported as 3 µM, the “B: relative efficacy, UK” value [6, 16] is reported as 27.3 and the IC50 [7] is reported as 12 µM. The “B: relative efficacy, PL” value [7, 16] was 4.5, the IC50 [8] was 6 µM and the “B: relative efficacy, tPA” value [8, 16] was 22.0.
With `N=C(N)NCCC[C@@H](C=O)NC(=O)[C@H]1CCCN1C(=O)C(O)C1CCCC1.N=C(N)NCCC[C@@H](C=O)NC(=O)[C@H]1CCCN1C(=O)C(O)C1CCCC1.O=S(=O)(O)O` (stereo partly drawn) [Compound 2, D-2-Cyclopentyl-2-hydroxyacetyl-L-prolyl-L-arginine aldehyde hemisulfate] the “B: relative efficacy, UK” value [6] was 0.6, the IC50 [6] was 137 µM and the “times lower activity than compound C3, third enzyme (UK)” value ([6]; versus C3 of Table 4) was 39. It also gave an IC50 ([1]; Table 2, read-out: A: IC50, PT) of 2.03 µM, an IC50 [2, 17] of 0.107 µM and an IC50 ([3]; Table 2, read-out: A: IC50, TT) of 0.1 µM. The “B: relative efficacy, PL” value [7] was 0.13, the IC50 [7] was 390 µM and the “times lower activity than compound C3, first enzyme (PL)” value ([7]; versus C3 of Table 4) was 7.5. The IC50 [4, 18] was 0.71 µM, the “B: relative efficacy, tPA” value [8] was 1.2 and the IC50 [8] was 112 µM. The “times lower activity than compound C3, second enzyme (tPA)” value ([8]; versus C3 of Table 4) was 12.
For `CC(=N)N1CC[C@H](Oc2ccc([C@H](Cc3ccc4ccc(C(=N)N)cc4c3)C(=O)O)cc2)C1` [Compound C2, (+)-(2S)-2-[4[[(3S)-1-acetimidoyl-3-pyrrolidinyl]oxy]phenyl]-3-[7[amidino-2-naphthyl]-propionic acid hydrochloride pentahydrate], the IC50 [9] is given as 0.97 µM, the “activity in the TT test” value [10] is given as “fail to exert any activity” and the IC50 [11] is given as 0.52 µM.
Compound `CC(C)(C)OC(=O)N[C@H](Cc1ccccc1)C(=O)N[C@@H](Cc1cccc2ccccc12)C(=O)N[C@H](C=O)CCCN=C(N)N` [Compound C4, Boc-D-Phe-Nal(1)-Arg-H] (Boc-[dF]-[1Nal]-Arg-aldehyde) has an IC50 ([1]; Table 1, read-out: B: IC50, PT) of 53.6 µM, an IC50 [2, 14] of 0.086 µM and an IC50 ([3]; Table 1, read-out: B: IC50, TT) of 17.2 µM. For the same compound, the IC50 [4, 15] was 9.96 µM and the IC50 [5] was 0.03 µM.
Work on `NC(N)=NCCC[C@@H](C=O)NC(=O)[C@@H]1CCCN1C(=O)[C@H](O)C1CCCCC1` [Compound C5, D-Hma-Pro-Arg-H] yielded an IC50 ([1]; Table 2, read-out: A: IC50, PT) of 2.14 µM, an IC50 [2, 17] of 0.247 µM and an IC50 ([3]; Table 2, read-out: A: IC50, TT) of 0.22 µM. It also gave an IC50 [4, 18] of 0.79 µM, an IC50 [12] of 0.27 µM and an IC50 [13] of 0.22 µM.
For “TAP: 60-member polypeptide isolated from tick, fXa inhibitor (YNRLCIKPRDWIDECDSNEGGERAYFRNGKGGCDSFWICPEDHTGADYYSSYRDCFNACI; UniProt P17726 1-60, looked up)”, the “activity in the TT test” value [10] is listed as “fail to exert any activity”.
